One data set relates to C. difficile ATCC 700057. The data set is described as follows: MIC broth dilution assay (Table 2). It is filed as cell-based, Clostridium difficile. The conditions noted are these: Clostridioides difficile. The protocol: (§1) Stocks of test compounds and standards were diluted 1:100 to provide working stocks in each growth medium. For P. aeruginosa, S. enterica and S. aureus, eleven serial, one-half dilutions of the compounds and standards were prepared in 96-well polypropylene dilution blocks in cation-adjusted Mueller Hinton broth (CAMHB). The dilutions were transferred to 96-well assay plates. […] Bacterial suspensions were prepared and added to each well at a concentration of approximately 5×10^5 colony-forming-units per milliliter. […] At the completion of incubation the wells of each plate were evaluated visually for the presence of bacterial growth. The MIC was the concentration at which there was no growth. MICs against H. influenzae, S. pneumoniae and C. difficile were determined similarly, but dilutions were prepared directly in the 96-well assay plates and MIC parameters were as indicated below (Table 1). [table]

Data set [1] relates to S. enterica ATCC 14028. Kind of data set: MIC of more highly purified compounds (Table 3). It is filed as cell-based. The source says:
(§2) MIC was further evaluated using EtOAc extracts of more highly purified Compound #1 and Compound #2. MIC of these compounds was compared to ACHN-490 (Plazomicin; an aminoglycoside effective primarily against Gram-negative bacteria), Colistin (a polymyxin antibiotic effective against most Gram-negative bacilli), and Meropenem (an ultra broad-spectrum, beta-lactam antibiotic).

In a further data set the test system is K. pneumoniae ATCC 43816. The data set is described as follows: MIC of more highly purified compounds (Table 3). It is filed as cell-based.
Excerpt: as §2

In data set [2] the test system is S. aureus (MRSA) ATCC 33591. The data set is described as follows: MIC of more highly purified compounds (Table 3). Type of data set: cell-based. As to conditions: EtOAc extracts of more highly purified compounds.
Excerpt: as §2

For the next data set, the system named is A. baumannii ATCC 19606. The data set is described as follows: MIC of more highly purified compounds (Table 3). Type of data set: cell-based.
Excerpt: as §2

Data set [3] concerns S. enterica ATCC 14028. The data set is described as follows: MIC broth dilution assay (Table 2). Type of data set: cell-based. The conditions noted are these: Salmonella enterica, ATCC14028, CAMHB, 16-20 h, 35° C., read-out: Minimum inhibitory concentration (MIC). The protocol: (§3) Stocks of test compounds and standards were diluted 1:100 to provide working stocks in each growth medium. For P. aeruginosa, S. enterica and S. aureus, eleven serial, one-half dilutions of the compounds and standards were prepared in 96-well polypropylene dilution blocks in cation-adjusted Mueller Hinton broth (CAMHB). The dilutions were transferred to 96-well assay plates. […] Bacterial suspensions were prepared and added to each well at a concentration of approximately 5×10^5 colony-forming-units per milliliter. The inoculated plates were incubated for 16-20 hours at 35±1° C. At the completion of incubation the wells of each plate were evaluated visually for the presence of bacterial growth. The MIC was the concentration at which there was no growth.
A general note: Dilution methods test growth across graded concentrations, often in twofold steps.

For the next data set, the system named is P. aeruginosa ATCC 27853. The data set is described as follows: MIC broth dilution assay (Table 2). Type of data set: cell-based. The conditions noted are these: Pseudomonas aeruginosa, ATCC27853, CAMHB, 16-20 h, 35° C., read-out: Minimum inhibitory concentration (MIC). As for the experimental part: as §3
Data set [4] in a line: Maximum Tolerated Dose (MTD) study. It is filed as in vivo. The conditions noted are these: CD-1 mice; subcutaneous 20, 40 or 80 mg/kg; observed 1 hour, 24 hours and 48 hours. As for the experimental part: MTD studies were performed for Compound #1, Compound #2 and Compound #3. CD-1 mice, 6-8 weeks of age, were used for these studies. Groups of three mice were injected subcutaneously with 20 mg/kg, 40 mg/kg or 80 mg/kg of Compound #1, Compound #2 or Compound #3 Animals were observed 1 hour, 24 hours and 48 hours after administration of compound.

The test system of data set [5] is S. pneumoniae ATCC 49619. Kind of data set: MIC broth dilution assay (Table 2). Type of data set: cell-based. The conditions noted are these: Streptococcus pneumoniae, ATCC49619, CAMHB + LHB, 20-24 h, read-out: Minimum inhibitory concentration (MIC). The protocol: as §1
A further data set relates to E. coli K-12. The data set is described as follows: bacterial growth inhibition assay (cellulose disks). Type of data set: cell-based. The conditions noted are these: 0.85 μg on 6 mm cellulose disk. The protocol: (§4) To evaluate the antibiotic properties of the compounds produced by the NRPS cluster, Compound #1 or Compound #2 (0.85 μg) was diluted in 2 μl DMSO and soaked onto 6 mm cellulose disks for a bacterial growth inhibition assay.

For data set [6], the system named is Pseudomonas putida (ATCC 11172). The description is as above. It is filed as cell-based. The conditions noted are these: 0.85 μg on 6 mm cellulose disk. The protocol:
as §4

Data set [7] has as its system Acinetobacter baumannii (ATCC 17904). The description is as above. Type of data set: cell-based. As to conditions: 0.85 μg on 6 mm cellulose disk. The protocol: as §4
Another data set has as its system Bacillus subtilis PY79. The data set is described as above. It is filed as cell-based. The conditions noted are these: 0.85 μg on 6 mm cellulose disk. The protocol: as §4
The subject of data set [8] is Staphylococcus aureus (ATCC 2913). The data set is described as above. It is filed as cell-based. As to conditions: 0.85 μg on 6 mm cellulose disk. The protocol: as §4
The next data set concerns E. coli (ATCC 25922). The data set is described as above. Type of data set: cell-based. As to conditions: 0.85 μg on 6 mm cellulose disk. The protocol:
as §4

Data set [9] relates to Listeria grayi (ATCC 19120). The data set is described as above. As to conditions: 0.85 μg on 6 mm cellulose disk. It is filed as cell-based. As for the experimental part: as §4
The next data set concerns C. difficile ATCC 70057. Kind of data set: MIC of more highly purified compounds (Table 3). It is filed as cell-based. The conditions noted are these: Clostridioides difficile, ATCC70057, EtOAc extracts of more highly purified compounds.
Excerpt: as §2

Data set [10] relates to S. pneumoniae ATCC 49619. The data set is described as follows: MIC of more highly purified compounds (Table 3). It is filed as cell-based. As to conditions: Streptococcus pneumoniae, ATCC49619, EtOAc extracts of more highly purified compounds.
Excerpt: as §2

Data set [11] has as its system H. influenzae ATCC 49247. Kind of data set: MIC of more highly purified compounds (Table 3). It is filed as cell-based. As to conditions: Haemophilus influenzae, ATCC49247, EtOAc extracts of more highly purified compounds.
Excerpt: as §2

Data set [12] is described as follows: radio-HPLC of C. thermocellum culture fed 14C-labelled amino acids (water solubility of metabolite). Type of data set: physicochemical. The conditions noted are these: no new peak in radio-HPLC of culture. As for the experimental part: C. thermocellum was grown anaerobically in cellulose-containing medium. ^14C-labelled amino acids (^14C-L-Asp, ^14C-L-Leu and ^14C-L-Ile) were added to the culture media and radio-HPLC was performed. […] The orange suspension was centrifuged, the liquid layer separated from the cells and the DMSO was removed under reduced pressure. The final yield from this process was 14.7 mg.

For a further data set, the system named is HeLa cells. The data set is described as follows: in vitro cell toxicology assay. Type of data set: cell-based, human. The protocol:
(§5) In vitro cell toxicology assays were performed to evaluate the effect of Compound #1 on human cells. Compound #1, dissolved in DMSO, was added to vital cultures of HeLa cells and peripheral blood mononuclear cells (PMBC) one day after the cell cultures were started. For each cell line, pure DMSO (control #1), no DMSO (control #2) and Compound #1 in one times (T1-5 nM), five times (T5-25 nM) and ten times (T10-50 nM) of the bacteria-toxic concentration was added to the cell cultures for two sets each. All ten culture flasks per cell line (2×: T1, T5, T10, […]#2) were incubated under identical conditions and simple cell counts were performed on days two, four and six while replacing the cell culture medium to maintain the concentration of Compound #1.

The subject of data set [13] is peripheral blood mononuclear cells (PMBC). Kind of data set: in vitro cell toxicology assay. Type of data set: cell-based, human. The conditions noted are these: 5, 25, 50 nM. As for the experimental part: as §5
For data set [14], the system named is H. influenzae ATCC 49247. The data set is described as follows: MIC broth dilution assay (Table 2). Type of data set: cell-based. The conditions noted are these: ATCC49247, Haemophilus Test Medium Broth, 20-24 h, read-out: Minimum inhibitory concentration (MIC). The protocol:
as §3, with “The inoculated plates were incubated for 16-20 hours at 35±1° C.” left out

[15] abbreviates: EtOAc extracts of more highly purified compounds.
The mark [16] stands for this setting: Acinetobacter baumannii, ATCC19606, EtOAc extracts of more highly purified compounds, read-out: MIC.
Where [17] appears, read: Salmonella enterica, ATCC14028, EtOAc extracts of more highly purified compounds, read-out: MIC.
Where [18] appears, read: Staphylococcus aureus, read-out: MIC.

Converted amounts (≈) assume the structure as drawn. Structures can show the parent of a compound that is named as a salt. Where two headings read alike, the source gives them in different places.

Regarding `CN[C@H](CC(C)C)C(=O)N[C@H]1C(=O)N[C@@H](CC(N)=O)C(=O)N[C@H]2C(=O)N[C@H]3C(=O)N[C@H](C(=O)N[C@H](C(=O)O)c4cc(O)cc(O)c4-c4cc3ccc4O)[C@H](O)c3ccc(c(Cl)c3)Oc3cc2cc(c3O[C@@H]2O[C@H](CO)[C@@H](O)[C@H](O)[C@H]2O[C@H]2C[C@](C)(N)[C@H](O)[C@H](C)O2)Oc2ccc(cc2Cl)[C@H]1O` [VAN, vancomycin hydrochloride, reference compound], in the data set with C. difficile ATCC 700057 (ATCC700057, read-out: Minimum inhibitory concentration (MIC)), the MIC stood at 0.25 µg/mL.
For the compound Colistin, the MIC with S. enterica ATCC 14028 [1] (setting [15]) is >32 µg/mL; in the data set on K. pneumoniae ATCC 43816 (setting [15]), 0.12 µg/mL; in [2] it was 32 µg/mL; in the data set with A. baumannii ATCC 19606 (setting [15]), >32 µg/mL.
As to `CN[C@@H]1[C@@H](O)[C@@H](O[C@@H]2[C@@H](O)[C@H](O[C@H]3OC(CNCCO)=CC[C@H]3N)[C@@H](N)C[C@H]2NC(=O)[C@@H](O)CCN)OC[C@]1(C)O` [ACHN-490, Plazomicin], the MIC in the data set on A. baumannii ATCC 19606 (setting [16]) was determined as 8 µg/mL.
For the compound `C[C@@H](O)[C@H]1C(=O)N2C(C(=O)O)=C(S[C@@H]3CN[C@H](C(=O)N(C)C)C3)[C@H](C)[C@H]12` [Meropenem], the MIC was > 16 µg/mL with S. enterica ATCC 14028 [1] (setting [17]), > 16 µg/mL in [2] (setting [18]) and 1 µg/mL in the data set with A. baumannii ATCC 19606 (setting [16]).
Regarding `CCC(C)C1N[C@@H]2OC[C@H](OC(=O)C(CC=O)NC1=O)[C@H](O[C@@H]1OC[C@@H](O)[C@H](O)[C@@H]1O)[C@@H]2O` (stereo partly shown) [Compound #1], the MIC in the data set with S. enterica ATCC 14028 [3] was > 128 µg/mL; in the data set on P. aeruginosa ATCC 27853, > 128 µg/mL; with S. pneumoniae ATCC 49619 [5], 64 µg/mL; in the data set on C. difficile ATCC 700057 (ATCC700057, C. difficile ATCC 700057, Supplemented Brucella Broth + LHB, anaerobic, 46-48 h, read-out: Minimum inhibitory concentration (MIC)), 32 µg/mL; in the data set on C. difficile ATCC 70057, 16 µg/mL; in the data set with S. pneumoniae ATCC 49619 [10], 16 µg/mL. The MIC in the data set on S. enterica ATCC 14028 [1] (setting [17]) was found to be 16 µg/mL; in the data set on K. pneumoniae ATCC 43816 (Klebsiella pneumoniae, ATCC43816, EtOAc extracts of more highly purified compounds, read-out: MIC), 8 µg/mL; in the data set on H. influenzae ATCC 49247 [11] it was 0.5 µg/mL; in [2] (setting [18]), 16 µg/mL; with A. baumannii ATCC 19606 (setting [16]) it was 8 µg/mL; in the data set on H. influenzae ATCC 49247 [14], 2 µg/mL (≈ 4.2 µM). The “signs of illness (MTD study)” value in data set [4] was “No signs of illness”. Besides, the bacterial growth inhibition entry (in the data set with E. coli K-12; in data set [6]; in data set [7]; with Bacillus subtilis PY79; in data set [8]; in the data set with E. coli (ATCC 25922)) was “significantly inhibited bacterial growth” each time. Also, the bacterial growth inhibition result in [9] is “significantly inhibited bacterial growth”. The water solubility entry in data set [12] is given as “water insoluble”. Besides, the “changes in physical appearance of cell line” value is listed as “no changes in physical appearance” with HeLa cells (5, 25, 50 nM) and “no changes in physical appearance” in data set [13]. In addition, the pyrogenic reactions entry in the data set with HeLa cells (5, 25, 50 nM) is “No pyrogenic reactions”; in [13], “No pyrogenic reactions”. Besides, the “variation of death rates, treated vs untreated cell cultures” value is given as “less than 5%” in the data set on HeLa cells (5, 25, 50 nM, cell counts on days two, four and six); “less than 5%” in data set [13] (cell counts on days two, four and six). The proliferation rate entry with HeLa cells (T10 (50 nM)) is listed as “slightly reduced”.

Values taken from patent publication US9382294B2, “Broad spectrum antibiotic compounds and use thereof” (Los Alamos National Security, LLC, priority 2013, dated 2016).
